Results taken from patent US20150203517A1, “Prodrugs of Compounds that Enhance Antifungal Activity and Compositions of Said Prodrugs” (priority 2014, published 2015).
Counter-ions that a name gives are not always drawn. Like-named read-outs stand apart in the source and are kept apart here.

Assay: Saline solubility at 1.00 mg/mL and 0.50 mg/mL (with pH by indicator paper)
Assay type: physicochemical
Conditions: for pH at 1.00 mg/mL of MGCD290 in saline: final concentration of hydroxamate 1 1.00 mg/mL, pH indicator paper; for solubility at 1 h: saline or isotonic, thermodynamic from solid, centrifuged, soluble = no precipitate formed
Method: Assays were performed to determine the saline solubility at 1.00 and 0.50 mg/ml and the stability of certain of the prodrug compounds of Examples 1-111. The following procedures were used.
Step 1. Sample preparation. An amount of the compound sample was precisely weighed to correspond to around 5 mg of the hydroxamate of compound 1, taking into account the mass of the leaving group and the salt factor if applicable. The sample was placed in a 16×125 mm glass screw cap tube. Saline was added so that the final concentration of hydroxamate 1 was 1.00 mg/mL. The pH was measured with pH indicator paper. The tube was shaken for 1 hour on a Vortex apparatus then centrifuged at 3000 rpm (1800 rcf) for 5 minutes. If the compound example was soluble (no precipitate formed) the procedure continued to step 2. If a precipitate formed then the sample was diluted with saline so that the final concentration of the hydroxamate of compound 1 was 0.50 mg/mL, and the shaking and centrifuging steps were repeated. If the compound example was soluble (no precipitate formed) the procedure continued to step 2. If a precipitate formed the sample was discarded. Step 2. HPLC analysis. A 500 μL aliquot of a sample solution prepared according to Step 1 was taken up into a 1.5 mL injection vial to which was added 500 μL of saline. The vial was shaken on a Vortex apparatus, injected into the HPLC instrument (UV detection, zero time point) and the retention time and purity of the sample compound were determined. The injection was repeated after 6 hours and 24 hours, and a comparison was made of the retention time, peak areas and level of degradation (if any) using the GDADI50 method.

[1] = 0.50 mg/mL as hydroxamate 1, shaken 1 hour, read-out: Soluble at 0.5 mg/mL of MGCD290 (Y/N)
[2] = 1.00 mg/mL as hydroxamate 1, shaken 1 hour, read-out: Soluble at 1.00 mg/mL of MGCD290 (Y/N)

Row | pH at 1.00 mg/mL of MGCD290 in saline | solubility at 1 h [1] [µg/mL] | solubility at 1 h [2] [µg/mL] | SMILES
1 | 4.5-5 | < 500 | < 1000 | COCCOCCOCCOCCOCC(=O)NC[C@H](C)C(=O)ONC(=O)Cc1ccc(CCCCc2ccccc2)cc1 [Compound 87, (S)—N-(2-Methyl-3-oxo-3-(2-(4-(4-phenylbutyl)phenyl)acetamidooxy)propyl)-2,5,8,11,14-pentaoxahexadecan-16-amide]
2 | 4.5-5 | – | > 1000 | COCCOCCOCCOCCOCC(=O)NCCCC[C@H](NC(=O)COCCOCCOCCOCCOC)C(=O)NCCC(=O)ONC(=O)Cc1ccc(CCCCc2ccccc2)cc1 [Compound 69]
3 | 4.5-5 | < 500 | < 1000 | CC(=O)OCC(=O)NCCC[C@H](NC(=O)COC(C)=O)C(=O)NCCC(=O)ONC(=O)Cc1ccc(CCCCc2ccccc2)cc1 [Compound 157]
4 | 4.5-5 | < 500 | < 1000 | COCCC(=O)NCCC[C@H](NC(=O)CCOC)C(=O)NCCC(=O)ONC(=O)Cc1ccc(CCCCc2ccccc2)cc1 [Compound 156]
5 | 5.5-6 | – | > 1000 | COCCOCCOCC(=O)NCCN(CC(=O)NCCCC(=O)ONC(=O)Cc1ccc(CCCCc2ccccc2)cc1)C(=O)COCCOCCOC [Compound 134, 2-(2-(2-Methoxyethoxyl)ethoxy)-N-(2-oxo-2-(4-oxo-4-(2-(4-(4-phenylbutyl)phenyl)acetamidooxy)butylamino)ethyl)-N-(10-oxo-2,5,8-trioxa-11-azatridecan-13-yl)acetamide]
6 | 4.5-5 | – | > 1000 | COCCOCCOCCOCC(=O)NCCCC[C@H](NC(=O)COCCOCCOCCOC)C(=O)NCCCC(=O)ONC(=O)Cc1ccc(CCCCc2ccccc2)cc1 [Compound 101]
7 | 4-4.5 | < 500 | < 1000 | Cl.O=C(Cc1ccc(CCCCc2ccccc2)cc1)NOC(=O)CC1CCNCC1 [Compound 114]
8 | 4-4.5 | < 500 | < 1000 | Cl.O=C(Cc1ccc(CCCCc2ccccc2)cc1)NOC(=O)C1CCNCC1 [Compound 118, 2-(4-(4-phenylbutyl)phenyl)-N-(piperidine-4-carbonyloxy)acetamide hydrochloride]
9 | 4.5-5 | < 500 | < 1000 | COCCOCCOCCOCC(=O)N1CCC(CC(=O)ONC(=O)Cc2ccc(CCCCc3ccccc3)cc2)CC1 [Compound 116]
10 | 4.5-5 | < 500 | < 1000 | COCCOCCOCC(=O)NCCCC[C@H](NC(=O)COCCOCCOC)C(=O)ONC(=O)Cc1ccc(CCCCc2ccccc2)cc1 [Compound 71]
11 | 4.5-5 | – | > 1000 | Cl.O=C(Cc1ccc(CCCCc2ccccc2)cc1)NOC(=O)CCN1CCNCC1=O [Compound 128, N-(3-(2-oxopiperazin-1-yl)propanoyloxy)-2-(4-(4-phenylbutyl)phenyl) acetamide hydrochloride]
12 | 4.5-5 | – | > 1000 | COCCOCCOCCOCCOCCOCC(=O)N1CCN(C(=O)ONC(=O)Cc2ccc(CCCCc3ccccc3)cc2)CC1 [Compound 82]
13 | 4.5-5 | < 500 | < 1000 | COCCOCCOCCOCCOCC(=O)NCCC[C@H](NC(=O)COCCOCCOCCOCCOC)C(=O)NCCC(=O)ONC(=O)Cc1ccc(CCCCc2ccccc2)cc1 [Compound 160]

Row | SMILES | pH at 1.00 mg/mL of MGCD290 in saline | solubility at 1 h [1] [µg/mL] | solubility at 1 h [2] [µg/mL]
14 | NCCNCC(=O)NCCCC(=O)ONC(=O)Cc1ccc(CCCCc2ccccc2)cc1 [Compound 133, 2-(2-Aminoethylamino)-N-(4-oxo-4-(2-(4-(4-phenylbutyl)phenyl)acetamidooxy)butyl) acetamide dihydrochloride] | 4.5-5 | < 500 | < 1000
